In patent publication US5604095A, “Unsymmetrically linked bisnaphthalimides as antitumor agents” (Cancer Therapy & Research Center, priority 1994, dated 1997):
Where two headings read alike, the source gives them in different places.

What was measured:
[1] = tested on: DLD-2 human colon adenocarcinoma; details: literature; cited from earlier work
[2] = cited from earlier work
[3] = tested on: MX-1 human breast carcinoma; details: literature; cited from earlier work
LX-1 lung carcinoma = details: literature; cited from earlier work
B16 melanoma [4] = test: In vivo tumor inhibiting activity vs. B16 melanoma in B6D2F1 mice; details: q.d. × 5, i.p., day 7
Procedure: B16 Melanoma: B6D2F1 mice received i.p. inocula of B16 murine melanoma brei prepared from B16 tumors growing subcutaneously in mice (day 0). On day 1, rumored mice were treated with drugs or vehicle control; the route of drug administration and schedule were selected as appropriate for the study in question. If dosing information for agents was not available, the maximum tolerated dose (MTD) was determined in initial dose finding experiments in non-rumored mice. In a typical experiment, drugs were given at their MTD and 1/2 MTD doses i.p. on a daily×5 schedule.
The mean survival times of all groups were calculated, and results were expressed as mean survival of treated mice/mean survival of control mice (T/C)×100%. A T/C value of 150 means that the mice in the treated group lived 50% longer than those of the control group; this is sometimes referred to as the increase in life space, or ILS value.
Mice that survived for 60 days were considered long term survivors, or cures, in the B16 model. The universally accepted cut-off for activity in this model, which has been used for years by the National Cancer Institute, is T/C=125. Conventional use of B16 over the years has set the following levels of activity: T/C<125, no activity; T/C=125-150, weak activity; T/C=150-200, modest activity; T/C=200-300, high activity; T/C>300, with long term survivors, excellent, curative activity (Goldin et al., 1981).
Statistics were performed on the data using primarily the log rank p-value test.

[5] = tested on: solid tumor xenografts, human and murine leukemia, doxorubicin resistant cell lines, colon carcinoma cells; details: cited from earlier work
B16 melanoma [6] = details: Chen et al., 1993; cited from earlier work

Row | Compound | in vivo anti-tumor activity against DLD-2 [1] | water solubility ([2]; reported) [g/L] | in vivo anti-tumor activity against MX-1 [3] | anti-tumor efficacy in vivo against LX-1 lung carcinoma (LX-1 lung carcinoma) | Wt. Ch. (Day 7) (B16 melanoma [4]; 5 mg/kg) | Wt. Ch. (Day 7) (B16 melanoma [4]; 10 mg/kg) [%] | toxicity ([5]; literature) | anti-tumor efficacy in vivo ([5]; solid tumor xenografts, leukemia, doxorubicin resistant lines, colon carcinoma) | water solubility ([2]; Sun et al., 1993) [g/L] | activity against B16 melanoma (B16 melanoma [6])
1 | C[C@H](CNCCNC[C@@H](C)N1C(=O)c2cccc3cc([N+](=O)[O-])cc(c23)C1=O)N1C(=O)c2cccc3cc([N+](=O)[O-])cc(c23)C1=O [DMP840, (R,R)-2,2'[1,2-ethanediylbis[imino(1-methyl-2,1-ethanediyl)]]-bis[5-nitro-1H-benz[de]isoquinoline-1,3-(2H)-dione] dimethanesulfonate] | anti-tumor efficacy in vivo | 3.4 | anti-tumor efficacy in vivo | anti-tumor efficacy in vivo | +4.6% | -0.33 | no irreversible toxicities | anti-tumor efficacy in vivo | – | –
2 | CS(=O)(=O)O.O=C1c2cccc3cc([N+](=O)[O-])cc(c23)C(=O)N1CCCCNCCCN1C(=O)c2cccc3cc([N+](=O)[O-])cc(c23)C1=O [XB596] | demonstrated in vivo anti-tumor activity | – | demonstrated in vivo anti-tumor activity | – | – | – | – | – | 0.045 | ineffective against B16 melanoma
